In brackets after ≈: the same amount, converted by molar mass. Where two headings read alike, the source gives them in different places.
Assays:
[1] = system: Mycobacterium bovis BCG (recombinant strain); experiment: microbe, parasite or virus in culture; assay type: cell-based; settings: 6 days 37° C.; for MIC: Mycobacterium tuberculosis variant bovis BCG, BCG, 144 h, read-out: MIC, column A, 3(S) compounds
[2] = system: Clostridium difficile ATCC 17857; experiment: In vitro inhibition of Clostridium difficile (Oxyrase broth microdilution MIC); assay type: cell-based; settings: Clostridioides difficile, ATCC17857; Clostridium difficile ATCC 17857, Oxyrase broth; read-out: MIC, column D, 3(S) compounds
[3] = system: Cryptosporidium parvum; experiment: Inhibition of Cryptosporidium parvum (ELISA, infected HCT-8 monolayers); assay type: cell-based; settings: 48 h
Description: Susceptibility testing against Cryptosporidium was performed according to published procedures (K. Woods, M. Nesterenko, S. Upton, "Development of a microtiter ELISA to quantify development of Cryptosporidium parvum in vitro," FEMS Microbiology Letters, 128:89-94 (1995).
Compounds were solubilized to a concentration of 100 mg/mL in 100% DMSO. DMSO solutions of test compounds were added to the test wells of a microplate at a volume that produced a final concentration of DMSO of 0.2%. Monolayers of human ileocecal adenocarcinoma cells (HCT-8) were prepared by growth in RPMI 1640 medium in 96-Well tissue culture trays for 24 h. Oocysts of C. parvum were allowed to excyst in 10% bleach for 10 min prior to use. Monolayers were then infected with 2-3×10^4 oocysts/well and incubated in the presence or absence of compound for 48 h at 35° C. in 5% CO2 and 95% humidity. Background consisted of wells containing killed oocysts (freeze thaw cycle following 30 sec exposure to liquid nitrogen). Growth control wells were infected with 2-3×10^4 oocysts/well in the absence of test compounds. At the end of incubation, wells were washed and fixed by adding 100 uL of 4% formalin in phosphate buffered saline (pH 7.3) per well for 2 h. After blocking with 1% bovine serum albumin, and 0.002% Tween 20, 50 uL of rat anti-Cryptosporidium membrane protein antiserum was added. After 30 min, wells were washed in PBS and 50 uL of secondary antibody (goat anti-rat antibody conjugated with horseradish peroxidase) was added. After 20-30 min, wells were washed again in PBS and 50 uL of 3,3',5,5'-tetramethylbenzidine solution was added. Plates were allowed to develop for 10-15 min and the optical density was read at 630 nm. Percent inhibition was calculated by comparing the optical density of the drug treated group to that of the untreated control.

[4] = system: Mycobacterium tuberculosis (rMTB); experiment: In vivo antimycobacterial activity against M. tuberculosis (rMTB) in spleens of mice; set-up: species or system Mycobacterium tuberculosis Erdman, in female BALB/c mice; settings: 25 mg/kg daily oral gavage, CM-2, 10 days, control 422,866 (PA-824, 636, 1297) or 362,274 (others)
[5] = system: Mycobacterium tuberculosis (rMTB); experiment: In vivo antimycobacterial activity against M. tuberculosis (rMTB) in lungs of mice; set-up: species or system Mycobacterium tuberculosis Erdman, in female BALB/c mice; settings: 25 mg/kg daily oral gavage, CM-2, 10 days, control 117,258 (PA-824, 636, 1297) or 22,751 (others)
[6] = system: Helicobacter pylori; experiment: In vitro inhibition of Helicobacter pylori (broth microdilution MIC); settings: Helicobacter pylori

CCCCCCCCO[C@@H]1COc2nc([N+](=O)[O-])cn2C1 [PA-602, 3S n-Octyloxy-6-nitro-2H-3,4-dihydro-[2-1b]imidazopyran]
MIC [1]: < 5 µg/mL
MIC [2]: 3.12 µg/mL (≈ 10.5 µM)

O=[N+]([O-])c1cn2c(n1)OC[C@@H](OCc1ccc(F)cc1)C2 [PA-655]
MIC [1]: > 5 µg/mL
MIC [2]: 6.25 µg/mL (≈ 21.3 µM)

O=[N+]([O-])c1cn2c(n1)OC[C@@H](OCc1ccc(Oc3ccccc3)cc1)C2 [PA-1122]
MIC [1]: 0.06 µg/mL (≈ 0.163 µM)
inhibition at 25 µg/mL ([3]; Cryptosporidium parvum, HCT-8, 25 μg/mL, read-out: Percent Inhibition of C. parvum): -1.8%
inhibition at 50 µg/mL ([3]; Cryptosporidium parvum, HCT-8, 50 μg/mL, read-out: Percent Inhibition of C. parvum): 17.8%
inhibition at 100 µg/mL ([3]; Cryptosporidium parvum, HCT-8, 100 μg/mL, read-out: Percent Inhibition of C. parvum): 61%
inhibition at 200 µg/mL ([3]; Cryptosporidium parvum, HCT-8, 200 μg/mL, read-out: Percent Inhibition of C. parvum): 83.5%

COC(C(=O)N[C@@H]1COc2nc([N+](=O)[O-])cn2C1)(c1ccccc1)C(F)(F)F (stereo partly drawn) [PA-1170]
MIC, column A, 3(S) compounds [1]: 0.13
Percent Inhibition of C. parvum ([3]; 25 μg/mL): -3%
Percent Inhibition of C. parvum ([3]; 50 μg/mL): -6%
Percent Inhibition of C. parvum ([3]; 100 μg/mL): 16%
Percent Inhibition of C. parvum ([3]; 200 μg/mL): -3.6%

4-Bromobenzyl Carbamate of 3S 3-Hydroxy-6-nitro-3,4-dihydro-[2-1b]imidazopyran [PA-1324]
Average RLUs, M. tuberculosis (rMTB) in spleens [4]: 85,130 RLUs
MIC, column A, 3(S) compounds [1]: 0.015
Average RLUs, M. tuberculosis (rMTB) in lungs [5]: 1,612 RLUs

O=[N+]([O-])c1cn2c(n1)OC[C@@H](OCc1ccccc1)C2 [PA-651]
MIC [1]: > 5 µg/mL
MIC [2]: 3.12 µg/mL (≈ 11.3 µM)

O=C(NCc1ccc(OC(F)(F)F)cc1)O[C@@H]1COc2nc([N+](=O)[O-])cn2C1 [PA-1328, 4-(Trifluoromethoxy)benzyl Carbamate of 3S Hydroxy-6-nitro-2H-3,4-dihydo-[2-1b]imidazopyran]
Average RLUs, M. tuberculosis (rMTB) in spleens [4]: 251,264 RLUs
MIC [1]: 0.03 µg/mL (≈ 0.0746 µM)
Average RLUs, M. tuberculosis (rMTB) in lungs [5]: 3,000 RLUs

O=C(Nc1ccc(C(F)(F)F)cc1)O[C@@H]1COc2nc([N+](=O)[O-])cn2C1 [PA-1327, 4-(Trifluoromethyl)phenyl Carbamate of 3S Hydroxy-6-nitro-2H-3,4-dihydo-[2-1b]imidazopyran]
Average RLUs, M. tuberculosis (rMTB) in spleens [4]: 68,362 RLUs
MIC [1]: 0.25 µg/mL (≈ 0.672 µM)
Average RLUs, M. tuberculosis (rMTB) in lungs [5]: 1,561 RLUs

O=C(N[C@@H]1COc2nc([N+](=O)[O-])cn2C1)c1ccc(OCc2ccccc2)cc1 [PA-1125]
MIC [1]: 0.06 µg/mL (≈ 0.152 µM)
MIC ([6]; 72 h, read-out: MIC against Helicobacter pylori, strain 17 (Table 5A)): > 25 µg/mL
MIC ([6]; 72 h, read-out: MIC against Helicobacter pylori, strain 19 (Table 5A)): 0.8 µg/mL (≈ 2.03 µM)
MIC ([6]; 72 h, read-out: MIC against Helicobacter pylori, strain 20 (Table 5A)): 0.8 µg/mL (≈ 2.03 µM)
MIC ([6]; 72 h, read-out: MIC against Helicobacter pylori, strain 40 (Table 5A)): 1.5 µg/mL (≈ 3.8 µM)
MIC ([6]; 72 h, read-out: MIC against Helicobacter pylori, strain 43 (Table 5A)): 1.5 µg/mL (≈ 3.8 µM)
MIC ([6]; 72 h, read-out: MIC against Helicobacter pylori, strain 76 (Table 5A)): > 25 µg/mL
MIC ([6]; ATCC43504, 72 h, read-out: MIC against Helicobacter pylori, strain ATCC 43504 (Table 5A)): > 25 µg/mL
MIC [2]: 1.5 µg/mL (≈ 3.8 µM)

O=[N+]([O-])c1cn2c(n1)OC[C@@H](OCc1cccc(OCc3ccccc3)c1)C2 [PA-820]
MIC [1]: < 5 µg/mL
MIC [2]: 3.12 µg/mL (≈ 8.18 µM)
